Measured values: US12144795B2, “Cannabidiol compositions having modified cannabinoid profiles” (priority 2018, dated 2024)

Key:
Type in all cases: physicochemical
[1] = Evaporative crystallization from solvent mixtures, form by HT-XRPD before and after AAC; details: Acetonitrile / Water (50/50, v/v)
Description: Recrystallization experiments were conducted to screen for potential CBD polymorphs and evaluate the ability of the recrystallized CBD to expel impurities. The following recrystallization methods were undertaken: • evaporative crystallization from solvent mixtures; • antisolvent crystallization; • cooling crystallization; • single solvent drop grinding; • crystallization by crash-cooling; • vapor-diffusion-into-solution crystallization; and • crystallization by liquid diffusion. In each method, the starting material consisted of crystallized CBD of form A. Evaporative Crystallization from Solvent Mixtures
Without wishing to be bound by theory, the general principle behind evaporative crystallization using solvent anti-solvent mixtures is that the solvent evaporates, first causing the API to precipitate to some extent, and this material then acts as a seed, when the anti-solvent is evaporated. The first evaporation step is slow and is followed by a faster final evaporation phase. All crystalline samples were Form A both before and after the solids were exposed to accelerated ageing conditions. An oil-like substance was obtained from an acetonitrile/water solvent mixture that could not be analyzed by XRPD; therefore, this sample was not exposed to accelerated aging conditions.

[2] = Anti-solvent crystallization, solid form by HT-XRPD of precipitates and evaporated mother liquors, before and after AAC
Description: For the anti-solvent crystallization experiments, clear solutions of CBD of approximately 60 mg/mL were prepared. Briefly, 1 volume of cannabidiol solution was added to 4 volumes of anti-solvent. If solids were precipitated, they were collected by centrifugation. The solid was analyzed by XRPD after being dried under ambient conditions and following drying under deep vacuum. The mother liquors were allowed to evaporate until completely dry and the remaining solids analyzed as well. All solids were analyzed by XRPD before and after exposure to accelerated aging conditions (40° C./75% RH) for two days.
Solids precipitated immediately from the combination of methanol with water. To facilitate precipitation, the samples were placed at 5° C. for 24 hours. […] When no XRPD record was generated, the field is defined as “Not Applicable” (N/A).

[3] = Vapor-diffusion-into-solution crystallization, solid form after evaporation
Source text: The open vials were placed in a larger container with anti-solvent and the vapors were allowed to diffuse into the cannabidiol solution for two weeks. The effect of the anti-solvent, however, was too low to induce any precipitation of cannabidiol and, therefore, it was decided to evaporate the mother liquors and analyze the remaining solids. Crystalline solid was only found after evaporation of the Toluene/2,2,4-Trimethylepentane solution.

[4] = Liquid diffusion crystallization, solid form by HT-XRPD
Description: A solution of cannabidiol of about 75 mg/mL was prepared and a layer of anti-solvent was carefully added to the vial. These experiments were performed with water as anti-solvent because of the larger difference in density between solvent and anti-solvent.

[5] = solvent 1,2-Dimethoxyethane, anti-solvent Decane
[6] = solvent 1,4-Dioxane, anti-solvent Water
[7] = solvent Acetone, anti-solvent 2,2,4-Trimethylepentane
[8] = solvent Acetonitrile, anti-solvent Decane
[9] = solvent Ethanol, anti-solvent Decane
[10] = solvent Ethyl acetate, anti-solvent 2,2,4-Trimethylepentane
[11] = solvent Isopropyl acetate, anti-solvent 2,2,4-Trimethylepentane
[12] = solvent Tetrahydrofuran, anti-solvent Water
[13] = solvent Toluene, anti-solvent Decane
[14] = solvent 1,4-Dioxane, anti-solvent 2,2,4-Trimethylpentane
[15] = solvent 2-Methoxyethanol, anti-solvent 2,2,4-Trimethylpentane
[16] = solvent 4-methyl-2-pentanone, anti-solvent 2,2,4-Trimethylpentane
[17] = solvent Acetonitrile, anti-solvent Water
[18] = solvent Ethyl acetate, anti-solvent 2,2,4-Trimethylpentane
[19] = solvent Isobutanol, anti-solvent Water
[20] = solvent Isopropanol, anti-solvent Water
[21] = solvent Diethanolamine, anti-solvent Water
[22] = solvent Diethylene glycol, anti-solvent Water
[23] = solvent Dimethyl sulfoxide, anti-solvent Water

C=C(C)[C@@H]1CCC(C)=C[C@H]1c1c(O)cc(CCCCC)cc1O [CBD, (1′R,2′R)-5′-methyl-4-pentyl-2′-(prop-1-en-2-yl)-1′,2′,3′,4′-tetrahydro-[1,1′-biphenyl]-2,6-diol]
A low yield: Solid form by HT-XRPD Ambient After AAC ([2]; Dichloromethane / 2,2,4-Trimethylepentane, AS:S ratio 4:1)
Oily: Form by HT-XRPD Before AAC [1] | Form (evap. ML) [2, 5] | Form (evap. ML) [2, 7] | Form (evap. ML) [2, 8] | Form (evap. ML) [2, 9] | Form (evap. ML) [2, 11] | Form (evap. ML) [2, 13] | Solid form by HT-XRPD Vacuum [4, 6] | Solid form by HT-XRPD Vacuum [4, 21] | Solid form by HT-XRPD Vacuum [4, 22] | Solid form by HT-XRPD Vacuum [4, 23]
A low: Form (evap. ML) [2, 10] | Form (evap. ML) after AAC [2, 10]
oily: Solid form by HT-XRPD Ambient After AAC [4, 6] | Solid form by HT-XRPD Ambient Before AAC [4, 6]
Oil: Solid form after evaporation After AAC [3, 14] | Solid form after evaporation Before AAC [3, 14] | Solid form after evaporation After AAC [3, 6] | Solid form after evaporation Before AAC [3, 6] | Solid form after evaporation After AAC [3, 15] | Solid form after evaporation Before AAC [3, 15] | Solid form after evaporation After AAC [3, 16] | Solid form after evaporation Before AAC [3, 16] | Solid form after evaporation After AAC [3, 17] | Solid form after evaporation Before AAC [3, 17] | Solid form after evaporation After AAC [3, 18] | Solid form after evaporation Before AAC [3, 18] | Solid form after evaporation After AAC [3, 19] | Solid form after evaporation Before AAC [3, 19] | Solid form after evaporation After AAC [3, 20] | Solid form after evaporation Before AAC [3, 20] | Solid form after evaporation After AAC [3, 12] | Solid form after evaporation Before AAC [3, 12]
No: AS:S ratio 4:1 Precipitation? [2, 5] | AS:S ratio 4:1 Precipitation? ([2]; solvent 1,2-Dimethoxyethane, anti-solvent Water) | AS:S ratio 4:1 Precipitation? ([2]; solvent 1,4-Dioxane, anti-solvent 2,2,4-Trimethylepentane) | AS:S ratio 4:1 Precipitation? [2, 6] | AS:S ratio 4:1 Precipitation? ([2]; solvent 2-Butanone, anti-solvent Water) | AS:S ratio 4:1 Precipitation? [2, 7] | AS:S ratio 4:1 Precipitation? [2, 8] | AS:S ratio 4:1 Precipitation? ([2]; solvent Dichloromethane, anti-solvent 2,2,4-Trimethylepentane) | AS:S ratio 4:1 Precipitation? [2, 9] | AS:S ratio 4:1 Precipitation? [2, 10] | AS:S ratio 4:1 Precipitation? [2, 11] | AS:S ratio 4:1 Precipitation? ([2]; solvent Tetrahydrofuran, anti-solvent Decane) | AS:S ratio 4:1 Precipitation? [2, 12] | AS:S ratio 4:1 Precipitation? [2, 13] | Precipitation? [3, 14] | Precipitation? [3, 6] | Precipitation? [3, 15] | Precipitation? [3, 16] | Precipitation? [3, 17] | Precipitation? [3, 18] | Precipitation? [3, 19] | Precipitation? [3, 20] | Precipitation? [3, 12] | Precipitation? ([3]; solvent Toluene, anti-solvent 2,2,4-Trimethylpentane) | Solids after? [4, 6]
no effect on the solid form: Effect of accelerated aging conditions ([4]; AAC for 2 days)
indicative of Form A: XRPD of crystalline precipitates ([4]; water as anti-solvent, except 1,4-dioxane, diethylene glycol, DMSO and diethanolamine)
no effect on the physical appearance: Effect of accelerated aging conditions [3]
Form A: XRPD of solid after evaporation ([3]; Toluene/2,2,4-Trimethylepentane solution)
Yes: AS:S ratio 4:1 Precipitation? ([2]; solvent Methanol, anti-solvent Water) | Solids after? [4, 21] | Solids after? [4, 22] | Solids after? [4, 23]
